Reference: patent US8716287B2, “Pharmaceutical compounds” (Sentinel Oncology Limited, priority 2010, dated 2014)
Entries after “also recorded” stand apart in the source; their conditions may differ. Structures can show the parent of a compound that is named as a salt. Where two headings read alike, the source gives them in different places.

Tests used:
Chk-1 kinase = Chk-1 kinase (Homo sapiens (Human), UniProt O14757); test: Chk-1 kinase inhibiting activity (33P-ATP filter assay, CHKtide substrate); type: biochemical
Procedure: The compounds of the invention were tested for activity against Chk-1 kinase using the materials and protocols set out below.
Base Reaction buffer: 20 mM Hepes (pH 7.5), 10 mM MgCl2, 1 mM EGTA, 0.02% Brij35, 0.02 mg/ml BSA, 0.1 mM Na3VO4, 2 mM DTT, 1% DMSO
*Required cofactors are added individually to each kinase reaction
(i) Prepare indicated substrate in freshly prepared Base Reaction Buffer
(ii) Deliver any required cofactors to the substrate solution above
(iii) Deliver indicated kinase into the substrate solution and gently mix
(iv) Deliver compounds in DMSO into the kinase reaction mixture
(v) Deliver ^33P-ATP (specific activity 0.01 μCi/μl final) into the reaction mixture to initiate the reaction.
(vi) Incubate kinase reaction for 120 minutes at room temperature
(vii) Reactions are spotted onto P81 ion exchange paper (Whatman #3698-915)
(viii) Wash filters extensively in 0.1% phosphoric acid.
(ix) Dry filters and measure counts in scintillation counter
Recombinant full length construct, N-terminal GST tagged, purified from insect cells.
No special measures were taken to activate this kinase.
Final concentration in assay=0.5 nM
Peptide sequence: [[…]]
Final concentration in assay=20 μM
No additional cofactors are added to the reaction mixture

HT29 cells = test: Sensitisation of HT29 cells to SN38 (Alamar blue cell growth); type: cell-based, human; conditions: for fold shift in the IC50 value of SN38: HT29 cells; for Cell potentiation factor: SN38 sensitisation assay in HT-29 cells
Procedure: Studies were carried out to test the sensitising effect of compounds of the invention on the ability of the DNA damaging compound 7-ethyl-10-hydroxycamptothecin (SN38), an active metabolite of the anti-cancer drug irinotecan, to inhibit cell growth in HT29 cells.
The following protocol was used:
(a) HT29 cells were seeded in 96-well plates at a concentration of 3000 cells per well and allowed to adhere overnight prior to addition of compound or vehicle control.
(b) SN38 was prepared from a 10 mM DMSO stock to give a final concentration range of 1 μM, 300 nM, 100 nM, 30 nM, 10 nM, 3 nM, 1 nM, and vehicle control.
(c) Test compounds were prepared from 10 mM DMSO stocks to typically give a final concentration range of 3 μM, 1 μM, 0.3 μM. 0.1 μM, 0.03 μM and vehicle control. The final DMSO content was 0.4%.
(d) Test compounds were incubated with the cells for 72 h at 37° C. 5% CO2 in a humidified atmosphere.
(e) Alamar blue 10% (v/v) was then added and incubated for a further 6 h, and fluorescent product detected using the BMG FLUOstar plate reader.
(f) Data were analysed using a 4-parameter logistic equation in GraphPad Prism.
Sensitisation is determined by the enhancement in IC50 of SN38 by the addition of the Chk-1 kinase inhibitor. In the protocol described above, the IC50 for SN-38 is determined the presence of varying doses of the Chk-1 inhibitor. The fold shift represents a decrease in IC50 for SN-38 at a dose of Chk-1 inhibitor that has no effect by itself.

[1] = Chk-1 kinase, Table 3, read-out: IC50
[2] = ranges given, read-out: IC50 values against Chk-1 kinase

Chain of Chk-1 kinase (O14757 whole entry): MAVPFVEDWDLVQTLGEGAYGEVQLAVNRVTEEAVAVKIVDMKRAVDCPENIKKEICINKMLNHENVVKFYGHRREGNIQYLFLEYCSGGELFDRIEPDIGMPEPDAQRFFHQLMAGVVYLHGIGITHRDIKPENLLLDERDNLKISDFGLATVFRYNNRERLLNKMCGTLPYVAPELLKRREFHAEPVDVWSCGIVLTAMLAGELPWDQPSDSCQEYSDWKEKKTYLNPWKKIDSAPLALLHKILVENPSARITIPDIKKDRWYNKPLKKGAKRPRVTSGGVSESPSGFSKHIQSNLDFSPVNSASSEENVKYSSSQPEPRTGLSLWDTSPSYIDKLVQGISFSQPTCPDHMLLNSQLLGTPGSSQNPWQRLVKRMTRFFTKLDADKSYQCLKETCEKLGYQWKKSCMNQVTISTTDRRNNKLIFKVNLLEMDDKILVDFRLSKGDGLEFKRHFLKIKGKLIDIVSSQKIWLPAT

| Structure (SMILES) | IC50 (Chk-1 kinase; [1]) [µM] | IC50 (Chk-1 kinase; [2]) [µM] | IC50 (Chk-1 kinase; comparative tests, Example 70, read-out: Chk-1 IC50) [µM] | fold shift in the IC50 value of SN38 (HT29 cells; test compound at 3 μM) | fold shift in the IC50 value of SN38 (HT29 cells; test compound at 1 μM) | Cell potentiation factor (HT29 cells; compound at 3 μM) [fold] | fold shift in the IC50 value of SN38 (HT29 cells; test compound at 10 μM) | Cell potentiation factor (HT29 cells; compound at 10 μM) [fold] |
| --- | --- | --- | --- | --- | --- | --- | --- | --- |
| CN(CCc1ccc(NC(=O)Nc2cnc(C#N)cn2)cc1Cl)Cc1ccc(F)cc1 [Example 11, 1-(3-Chloro-4-{2-[(4-fluoro-benzyl)-methyl-amino]-ethyl}-phenyl)-3-(5-cyano-pyrazin-2-yl)-urea] | 0.146 | 0.1 to 1 | – | three | – | – | – | – |
| N#Cc1cnc(NC(=O)Nc2ccc(CCNCc3ccc(OC(F)(F)F)cc3)c(Cl)c2)cn1 [Example 14, 1-{3-Chloro-4-[2-(4-trifluoromethoxy-benzylamino)-ethyl]-phenyl}-3-(5-cyano-pyrazin-2-yl)-urea] | 0.068 | 0.01 to 0.1 | – | three | – | – | – | – |
| N#Cc1cnc(NC(=O)Nc2ccc(CCNCc3ccc(C(F)(F)F)cc3)c(Cl)c2)cn1 [Example 17, 1-{3-Chloro-4-[2-(4-trifluoromethyl-benzylamino)-ethyl]-phenyl}-3-(5-cyano-pyrazin-2-yl)-urea hydrochloride] | 0.078 | 0.01 to 0.1 | – | – | two | – | – | – |
| C[C@H](NCCc1ccc(NC(=O)Nc2cnc(C#N)cn2)cc1Cl)c1ccc(F)cc1 [Example 18, 1-(3-Chloro-4-{2-[(S)-1-(4-fluoro-phenyl)-ethylamino]-ethyl}-phenyl)-3-(5-cyano-yrazin-2-yl)-urea hydrochloride] | 0.021 | 0.01 to 0.1 | – | – | two | – | – | – |
| COc1cc(CCNCc2cccc(F)c2)c(Cl)cc1NC(=O)Nc1cnc(C#N)cn1 [Example 19, 1-{5-Chloro-4-[2-(3-fluoro-benzylamino)-ethyl]-2-methoxy-phenyl}-3-(5-cyano-pyrazin-2-yl)-urea hydrochloride] | 0.0012 | < 0.01 | 0.008 | – | – | 50 | – | – |
| N#Cc1cnc(NC(=O)Nc2ccc(OCCNCc3ccc(F)cc3)c(Cl)c2)cn1 [Example 26, 1-{3-Chloro-4-[2-(4-fluoro-benzylamino)-ethoxy]-phenyl}-3-(5-cyano-pyrazin-2-yl)-urea] | 0.021 | 0.01 to 0.1 | – | three | – | – | – | – |
| COc1cc(CCNCc2ccc(F)cc2)ccc1NC(=O)Nc1cnc(C)cn1 [Example 27, 1-{4-[2-(4-Fluoro-benzylamino)-ethyl]-2-methoxy-phenyl}-3-(5-methyl-pyrazin-2-yl)-urea hydrochloride] | 0.033 | 0.01 to 0.1 | – | three | – | – | – | – |
| N#Cc1cnc(NC(=O)Nc2ccc(CNCc3ccccc3)cc2)cn1 [Example 29, 1-[4-(Benzylamino-methyl)-phenyl]-3-(5-cyano-pyrazin-2-yl)-urea] | 0.32 | 0.1 to 1 | – | – | – | – | four | 4 |
| COc1cc(CCNCCc2ccc(F)cc2)ccc1NC(=O)Nc1cnc(C#N)cn1 [Example 31, 1-(5-Cyano-pyrazin-2-yl)-3-(4-{2-[2-(4-fluoro-phenyl)-ethylamino]-ethyl}-2-methoxy-phenyl)-urea] | 0.0027 | < 0.01 | – | three | – | – | – | – |
| N#Cc1cnc(NC(=O)Nc2cccc(CCNCc3ccc(F)cc3)c2)cn1 [Example 34, 1-(5-Cyano-pyrazin-2-yl)-3-{3-[2-(4-fluoro-benzylamino)-ethyl]-phenyl}-urea] | 0.069 | – | – | three | – | – | – | – |
| N#Cc1cnc(NC(=O)Nc2ccc(CCNCc3cccc(N4CCOCC4)c3)c(Cl)c2)cn1 [Example 39, 1-{3-Chloro-4-[2-(3-morpholin-4-yl-benzylamino)-ethyl]-phenyl}-3-(5-cyano-pyrazin-2-yl)-urea] | 0.012 | – | – | three | – | – | – | – |
| N#Cc1cnc(NC(=O)Nc2ccc(CCNCc3ccc(F)c(F)c3)c(Cl)c2)cn1 [Example 40, 1-{3-Chloro-4-[2-(3,4-difluoro-benzylamino)-ethyl]-phenyl}-3-(5-cyano-pyrazin-2-yl)-urea] | 0.0079 | < 0.01 | – | three | – | – | – | – |
| COc1cc(CCNCc2ccc(F)cc2)c(Br)cc1NC(=O)Nc1cnc(C#N)cn1 [Example 42, 1-{5-Bromo-4-[2-(4-fluoro-benzylamino)-ethyl]-2-methoxy-phenyl}-3-(5-cyano-pyrazin-2-yl)-urea hydrochloride] | 0.00045 | < 0.01 | – | greater than ten | two | – | – | – |
| COc1cc(CNCc2ccc(F)cc2)ccc1NC(=O)Nc1cnc(C#N)cn1 [Example 57, 1-(5-Cyano-pyrazin-2-yl)-3-{4-[(4-fluoro-benzylamino)-methyl]-2-methoxy-phenyl}-urea hydrochloride] | 0.0089 | < 0.01 | – | greater than ten | two | – | – | – |
| COc1ccc(CNCc2ccc(NC(=O)Nc3cnc(C#N)cn3)c(OC)c2)cc1 [Example 60, 1-(5-Cyano-pyrazin-2-yl)-3-{2-methoxy-4-[(4-methoxy-benzylamino)-methyl]-phenyl}-urea] | 0.0016 | < 0.01 | – | three; also recorded: greater than ten | – | – | – | – |

Continued, in another order:

| IC50 (Chk-1 kinase; [1]) [µM] | IC50 (Chk-1 kinase; [2]) [µM] | IC50 (Chk-1 kinase; comparative tests, Example 70, read-out: Chk-1 IC50) [µM] | Structure (SMILES) | fold shift in the IC50 value of SN38 (HT29 cells; test compound at 3 μM) | fold shift in the IC50 value of SN38 (HT29 cells; test compound at 1 μM) | Cell potentiation factor (HT29 cells; compound at 3 μM) [fold] | fold shift in the IC50 value of SN38 (HT29 cells; test compound at 10 μM) | Cell potentiation factor (HT29 cells; compound at 10 μM) [fold] |
| --- | --- | --- | --- | --- | --- | --- | --- | --- |
| 0.002 | < 0.01 | – | N#Cc1cnc(NC(=O)Nc2ccc(CCNCc3cccc(F)c3)c(Cl)c2)cn1 [Example 9, 1-{3-Chloro-4-[2-(3-fluoro-benzylamino)-ethyl]-phenyl}-3-(5-cyano-pyrazin-2-yl)-urea] | three; also recorded: greater than ten | – | – | – | – |
| 0.062 | 0.01 to 0.1 | – | N#Cc1cnc(NC(=O)Nc2ccc(CCNCc3ccccc3Cl)c(Cl)c2)cn1 [Example 10, 1-{3-Chloro-4-[2-(2-chloro-benzylamino)-ethyl]-phenyl}-3-(5-cyano-pyrazin-2-yl)-urea] | three | – | – | – | – |
| 0.011 | 0.01 to 0.1 | – | COc1cccc(CNCCc2ccc(NC(=O)Nc3cnc(C#N)cn3)cc2Cl)c1 [Example 12, 1-{3-Chloro-4-[2-(3-methoxy-benzylamino)-ethyl]-phenyl}-3-(5-cyano-pyrazin-2-yl)-urea] | three; also recorded: greater than ten | – | – | – | – |
| 0.037 | 0.01 to 0.1 | – | N#Cc1cnc(NC(=O)Nc2ccc(CCNCc3cccc(Cl)c3)c(Cl)c2)cn1 [Example 13, 1-{3-Chloro-4-[2-(3-chloro-benzylamino)-ethyl]-phenyl}-3-(5-cyano-pyrazin-2-yl)-urea hydrochloride] | – | two | – | – | – |
| 0.0035 | < 0.01 | – | COc1ccc(CNCCc2ccc(NC(=O)Nc3cnc(C#N)cn3)cc2Cl)cc1 [Example 15, 1-{3-Chloro-4-[2-(4-methoxy-benzylamino)-ethyl]-phenyl}-3-(5-cyano-pyrazin-2-yl)-urea] | three; also recorded: greater than ten | – | – | – | – |
| 0.013 | 0.01 to 0.1 | – | COc1ccccc1CNCCc1ccc(NC(=O)Nc2cnc(C#N)cn2)cc1Cl [Example 16, 1-{3-Chloro-4-[2-(2-methoxy-benzylamino)-ethyl]-phenyl}-3-(5-cyano-pyrazin-2-yl)-urea] | – | two | – | – | – |
| 0.011 | 0.01 to 0.1 | – | N#Cc1cnc(NC(=O)Nc2ccc(CCNCc3ccccc3F)c(Cl)c2)cn1 [Example 23, 1-{3-Chloro-4-[2-(2-fluoro-benzylamino)-ethyl]-phenyl}-3-(5-cyano-pyrazin-2-yl)-urea] | three; also recorded: greater than ten | – | – | – | – |
